This is an account of results in publication PMC5218480 (PLoS ONE, 2017).

The test system of the experiment is MV-4-11 cells. Nature of the experiment: Gene expression microarray analysis (Affymetrix PrimeView) and GSEA. Also on record: RFU PODN (11730768_x_at) / Fold change /veh PODN (11730768_x_at) / RFU LINC00158 (11744669_a_at) / Fold change /veh LINC00158 (11744669_a_at) / RFU DUSP10 (11751237_a_at) / Fold change /veh DUSP10 (11751237_a_at) / RFU ID3 (11757404_x_at) / Fold change /veh ID3 (11757404_x_at) / RFU PLEKHG5 (11737974_s_at) / Fold change /veh PLEKHG5 (11737974_s_at) / RFU LRRC4B (11730491_at) / Fold change /veh LRRC4B (11730491_at) / RFU GIMAP4 (11747438_a_at) / Fold change /veh GIMAP4 (11747438_a_at) / RFU KRT8 (11758183_x_at) / Fold change /veh KRT8 (11758183_x_at) / RFU CNN1 (11734310_a_at) / Fold change /veh CNN1 (11734310_a_at) / RFU VPS37D (11726825_at) / Fold change /veh VPS37D (11726825_at) / RFU C10orf10 (11716522_x_at) / Fold change /veh C10orf10 (11716522_x_at) / RFU KIR2DL2 /// KIR2DL4 /// KIR2DL5A /// KIR2DL5B /// KIR2DS1 /// KIR2DS2 /// KIR2DS3 /// KIR2DS4 /// KIR3DL3 /// KIR3DL3 /// KIR3DS1 (11738374_at) / Fold change /veh KIR2DL2 /// KIR2DL4 /// KIR2DL5A /// KIR2DL5B /// KIR2DS1 /// KIR2DS2 /// KIR2DS3 /// KIR2DS4 /// KIR3DL3 /// KIR3DL3 /// KIR3DS1 (11738374_at) / RFU C1QL1 (11718748_at) / Fold change /veh C1QL1 (11718748_at) / RFU TMPRSS4 (11747572_a_at) / Fold change /veh TMPRSS4 (11747572_a_at) / RFU HAMP (11756126_x_at) / Fold change /veh HAMP (11756126_x_at) / RFU RNFT2 (11725882_a_at) / Fold change /veh RNFT2 (11725882_a_at) / RFU NR4A2 (11747474_a_at) / Fold change /veh NR4A2 (11747474_a_at) / RFU ABCC12 (11746883_a_at) / Fold change /veh ABCC12 (11746883_a_at) / RFU TMEM136 (11760407_x_at) / Fold change /veh TMEM136 (11760407_x_at) / RFU CLDN22 /// WWC2 (11732394_at) / Fold change /veh CLDN22 /// WWC2 (11732394_at) / RFU HLA-DPB1 (11760878_x_at) / Fold change /veh HLA-DPB1 (11760878_x_at) / RFU SPINT1 (11716480_a_at) / Fold change /veh SPINT1 (11716480_a_at) / RFU GAP43 (11754022_s_at) / Fold change /veh GAP43 (11754022_s_at) / RFU A4GNT (11735810_at) / Fold change /veh A4GNT (11735810_at) / RFU PRB3 (11715151_x_at) / Fold change /veh PRB3 (11715151_x_at) / RFU TUBB4B (11761932_at) / Fold change /veh TUBB4B (11761932_at) / RFU CAPN14 (11732068_a_at) / Fold change /veh CAPN14 (11732068_a_at) / RFU TMCC2 (11721928_a_at) / Fold change /veh TMCC2 (11721928_a_at) / RFU IRGQ (11745062_a_at) / Fold change /veh IRGQ (11745062_a_at) / RFU FAM174B (11720279_a_at) / Fold change /veh FAM174B (11720279_a_at) / RFU TMPRSS4 (11748680_a_at) / Fold change /veh TMPRSS4 (11748680_a_at) / RFU FAM212B (11763350_a_at) / Fold change /veh FAM212B (11763350_a_at) / RFU PLEKHG5 (11743358_a_at) / Fold change /veh PLEKHG5 (11743358_a_at) / RFU ZSCAN30 (11745921_a_at) / Fold change /veh ZSCAN30 (11745921_a_at) / RFU CMKLR1 (11741424_a_at) / Fold change /veh CMKLR1 (11741424_a_at) / RFU LOC101060620 /// MAPK8IP1 (11723275_at) / Fold change /veh LOC101060620 /// MAPK8IP1 (11723275_at) / RFU SPTSSB (11747773_x_at) / Fold change /veh SPTSSB (11747773_x_at) / RFU PRSS12 (11739890_at) / Fold change /veh PRSS12 (11739890_at) / RFU BIN1 (11741810_x_at) / Fold change /veh BIN1 (11741810_x_at) / RFU WNT11 (11732464_a_at) / Fold change /veh WNT11 (11732464_a_at) / RFU C10orf10 (11716521_a_at) / Fold change /veh C10orf10 (11716521_a_at) / RFU C5orf56 (11738089_at) / Fold change /veh C5orf56 (11738089_at) / RFU CYB561 (11721691_x_at) / Fold change /veh CYB561 (11721691_x_at) / RFU ANKRD19P (11752326_a_at) / Fold change /veh ANKRD19P (11752326_a_at) / RFU OR2T12 /// OR2T33 /// OR2T8 (11738714_s_at) / Fold change /veh OR2T12 /// OR2T33 /// OR2T8 (11738714_s_at) / RFU VCAN (11748164_a_at) / Fold change /veh VCAN (11748164_a_at) / RFU JSRP1 (11732532_at) / Fold change /veh JSRP1 (11732532_at) / RFU KRTAP10-11 (11738290_x_at) / Fold change /veh KRTAP10-11 (11738290_x_at) / RFU MYO3A (11730013_a_at) / Fold change /veh MYO3A (11730013_a_at) / RFU EBF3 (11725865_a_at) / Fold change /veh EBF3 (11725865_a_at) / RFU CAMK2N1 (11719241_x_at) / Fold change /veh CAMK2N1 (11719241_x_at) / RFU C5orf56 (11738088_a_at) / Fold change /veh C5orf56 (11738088_a_at) / RFU OLFML3 (11715873_a_at) / Fold change /veh OLFML3 (11715873_a_at) / RFU LOC100653217 /// NTM (11731650_a_at) / Fold change /veh LOC100653217 /// NTM (11731650_a_at) / RFU MAPK11 (11762145_a_at) / Fold change /veh MAPK11 (11762145_a_at) / RFU FIZ1 (11724087_x_at) / Fold change /veh FIZ1 (11724087_x_at) / RFU OASL (11726364_x_at) / Fold change /veh OASL (11726364_x_at) / RFU SOX15 (11748057_x_at) / Fold change /veh SOX15 (11748057_x_at) / RFU CD79A (11719716_a_at) / Fold change /veh CD79A (11719716_a_at) / RFU HIST1H1D (11736915_at) / Fold change /veh HIST1H1D (11736915_at) / RFU CASKIN2 (11723855_a_at) / Fold change /veh CASKIN2 (11723855_a_at) / RFU LOC730098 (11760151_x_at) / Fold change /veh LOC730098 (11760151_x_at) / RFU OR4N2 (11742367_at) / Fold change /veh OR4N2 (11742367_at) / RFU PRRT2 (11749266_a_at) / Fold change /veh PRRT2 (11749266_a_at) / RFU SNX32 (11753110_a_at) / Fold change /veh SNX32 (11753110_a_at) / RFU CDHR5 (11726645_a_at) / Fold change /veh CDHR5 (11726645_a_at) / RFU RCAN1 (11760418_a_at) / Fold change /veh RCAN1 (11760418_a_at) / RFU FAM167A (11723789_a_at) / Fold change /veh FAM167A (11723789_a_at) / RFU FAM26E (11764081_at) / Fold change /veh FAM26E (11764081_at) / RFU ISYNA1 (11749810_s_at) / Fold change /veh ISYNA1 (11749810_s_at) / RFU ACY1 (11761880_at) / Fold change /veh ACY1 (11761880_at) / RFU 11764098_at / Fold change /veh 11764098_at / RFU SAMD14 (11745864_x_at) / Fold change /veh SAMD14 (11745864_x_at) / RFU NPB (11741838_a_at) / Fold change /veh NPB (11741838_a_at) / RFU TMPRSS6 (11731388_a_at) / Fold change /veh TMPRSS6 (11731388_a_at) / RFU KRTAP10-2 (11738614_at) / Fold change /veh KRTAP10-2 (11738614_at) / RFU ARHGAP8 /// PRR5-ARHGAP8 (11727945_x_at) / Fold change /veh ARHGAP8 /// PRR5-ARHGAP8 (11727945_x_at) / RFU KRTAP5-7 /// NADSYN1 (11734609_at) / Fold change /veh KRTAP5-7 /// NADSYN1 (11734609_at) / RFU RASL12 (11751679_a_at) / Fold change /veh RASL12 (11751679_a_at) / RFU CDKN2B (11736163_a_at) / Fold change /veh CDKN2B (11736163_a_at) / RFU PRF1 (11729649_at) / Fold change /veh PRF1 (11729649_at) / RFU, ZNF638 /// ZNF638-IT1 / Fold change vs veh, ZNF638 /// ZNF638-IT1 / RFU, PANK3 / Fold change vs veh, PANK3 / RFU, SH3YL1 / Fold change vs veh, SH3YL1 / RFU, ZEB2 / Fold change vs veh, ZEB2 / RFU, NRIP1 / Fold change vs veh, NRIP1 / RFU, PTTG1IP / Fold change vs veh, PTTG1IP / RFU, CAPN2 / Fold change vs veh, CAPN2 / RFU, MED14 / Fold change vs veh, MED14 / RFU, SNORA58 / Fold change vs veh, SNORA58 / RFU, C1orf63 / Fold change vs veh, C1orf63 / RFU, LRRFIP1 / Fold change vs veh, LRRFIP1 / RFU, NDUFAF7 / Fold change vs veh, NDUFAF7 / RFU, SLC12A2 / Fold change vs veh, SLC12A2 / RFU, IBTK / Fold change vs veh, IBTK / RFU, ESF1 / Fold change vs veh, ESF1 / Fold change vs veh, TMEM50B / RFU, TAOK1 / Fold change vs veh, TAOK1 / RFU, ACBD3 / Fold change vs veh, ACBD3 / RFU, TMA16 / Fold change vs veh, TMA16 / RFU, RWDD3 / Fold change vs veh, RWDD3 / RFU, BCAT1 / Fold change vs veh, BCAT1 / RFU, EDEM3 / Fold change vs veh, EDEM3 / RFU, TMEM33 / Fold change vs veh, TMEM33 / RFU, WDR75 / Fold change vs veh, WDR75 / RFU, AHCTF1 / Fold change vs veh, AHCTF1 / RFU, TFRC / Fold change vs veh, TFRC / RFU, ZDHHC17 / Fold change vs veh, ZDHHC17 / RFU, NOM1 / Fold change vs veh, NOM1 / RFU, ARL8B / Fold change vs veh, ARL8B / RFU, ZBTB11 / Fold change vs veh, ZBTB11 / RFU, TAMM41 / Fold change vs veh, TAMM41 / RFU, KIAA1704 /// LOC100996395 / Fold change vs veh, KIAA1704 /// LOC100996395 / RFU, ING1 / Fold change vs veh, ING1 / RFU, TRMT61B / Fold change vs veh, TRMT61B / RFU, FUBP3 / Fold change vs veh, FUBP3 / RFU, TP53 / Fold change vs veh, TP53 / RFU, TNKS2 / Fold change vs veh, TNKS2 / RFU, ZFP14 / Fold change vs veh, ZFP14 / RFU, ACTR2 / Fold change vs veh, ACTR2 / RFU, PPP3R1 / Fold change vs veh, PPP3R1 / RFU, PIK3R1 / Fold change vs veh, PIK3R1 / RFU, HNRNPA1 / Fold change vs veh, HNRNPA1 / RFU, RNF170 / Fold change vs veh, RNF170 / RFU, ZNF28 / Fold change vs veh, ZNF28 / RFU, RNGTT / Fold change vs veh, RNGTT / RFU, OGT / Fold change vs veh, OGT / RFU, BRD1 / Fold change vs veh, BRD1 / RFU, MARS / Fold change vs veh, MARS / RFU, ZNF655 / Fold change vs veh, ZNF655 / RFU, FAHD1 / Fold change vs veh, FAHD1 / RFU, BDP1 / Fold change vs veh, BDP1 / RFU, LRRCC1 / Fold change vs veh, LRRCC1 / RFU, ARID1A / Fold change vs veh, ARID1A / RFU, ZNF146 / Fold change vs veh, ZNF146 / RFU, ZNF330 / Fold change vs veh, ZNF330 / RFU, GPN3 / Fold change vs veh, GPN3 / RFU, C9orf123 / Fold change vs veh, C9orf123 / RFU, N4BP2L2 / Fold change vs veh, N4BP2L2 / RFU, ARFIP1 / Fold change vs veh, ARFIP1 / RFU, FAM179B / Fold change vs veh, FAM179B / RFU, BCL10 / Fold change vs veh, BCL10 / RFU, UHRF1BP1L / Fold change vs veh, UHRF1BP1L / RFU, BET1 / Fold change vs veh, BET1 / RFU, CNOT2 / Fold change vs veh, CNOT2 / RFU, ZNF268 / Fold change vs veh, ZNF268 / Fold change vs veh, ZNF507 / RFU, DGCR2 / Fold change vs veh, DGCR2 / RFU, WDSUB1 / Fold change vs veh, WDSUB1 / Fold change vs veh, HSP90B1 /// MIR3652 / RFU, ADSS / Fold change vs veh, ADSS / RFU, GK / Fold change vs veh, GK / RFU, ZNF148 / Fold change vs veh, ZNF148 / RFU, TAF9 / Fold change vs veh, TAF9 / RFU, SLC1A5 / Fold change vs veh, SLC1A5 / RFU, SLMO2 / Fold change vs veh, SLMO2 / RFU, ABCC4 / Fold change vs veh, ABCC4 / RFU, LOC101060439 /// RAP1B / Fold change vs veh, LOC101060439 /// RAP1B / RFU, RFX7 / Fold change vs veh, RFX7 / RFU, GTPBP10 / Fold change vs veh, GTPBP10 / RFU, CNEP1R1 / Fold change vs veh, CNEP1R1 / RFU, BIVM-ERCC5 /// ERCC5 / Fold change vs veh, BIVM-ERCC5 /// ERCC5 / RFU, ILF3 / Fold change vs veh, ILF3 / RFU 11762660_at / Fold change /veh 11762660_at / RFU VCAN (11757783_s_at) / Fold change /veh VCAN (11757783_s_at) / RFU DDX43 (11728927_at) / Fold change /veh DDX43 (11728927_at) / RFU KRT8 (11758188_x_at) / Fold change /veh KRT8 (11758188_x_at) / RFU NKD1 (11759106_at) / Fold change /veh NKD1 (11759106_at) / RFU SRD5A1 (11742802_a_at) / Fold change /veh SRD5A1 (11742802_a_at) / RFU TPSAB1 /// TPSB2 (11721975_s_at) / Fold change /veh TPSAB1 /// TPSB2 (11721975_s_at) / RFU GSTM3 (11746129_a_at) / Fold change /veh GSTM3 (11746129_a_at) / RFU IL23R (11737362_x_at) / Fold change /veh IL23R (11737362_x_at) / RFU TMEM51 (11727254_a_at) / Fold change /veh TMEM51 (11727254_a_at) / RFU PIWIL2 (11732686_x_at) / Fold change /veh PIWIL2 (11732686_x_at) / RFU ORM1 (11744905_x_at) / Fold change /veh ORM1 (11744905_x_at) / RFU CCDC152 (11743942_at) / Fold change /veh CCDC152 (11743942_at) / RFU ECM1 (11717891_a_at) / Fold change /veh ECM1 (11717891_a_at) / RFU IL23R (11748794_a_at) / Fold change /veh IL23R (11748794_a_at) / RFU TNFAIP8L3 (11732012_x_at) / Fold change /veh TNFAIP8L3 (11732012_x_at) / RFU MBOAT4 (11741988_at) / Fold change /veh MBOAT4 (11741988_at) / RFU 11764193_at / Fold change /veh 11764193_at / RFU TMEM53 (11763286_at) / Fold change /veh TMEM53 (11763286_at) / RFU MAGEB2 (11727129_at) / Fold change /veh MAGEB2 (11727129_at) / RFU TMEM200A (11744735_a_at) / Fold change /veh TMEM200A (11744735_a_at) / RFU CCDC152 (11751479_a_at) / Fold change /veh CCDC152 (11751479_a_at) / RFU FAM211A (11726209_a_at) / Fold change /veh FAM211A (11726209_a_at) / RFU RGS16 (11746705_a_at) / Fold change /veh RGS16 (11746705_a_at) / RFU VCAN (11755009_s_at) / Fold change /veh VCAN (11755009_s_at) / RFU RHOB (11743442_s_at) / Fold change /veh RHOB (11743442_s_at) / RFU RGS16 (11720943_a_at) / Fold change /veh RGS16 (11720943_a_at) / RFU RGS16 (11720944_at) / Fold change /veh RGS16 (11720944_at) / RFU, VPS4B / Fold change vs veh, VPS4B / RFU, CREB1 / Fold change vs veh, CREB1 / RFU, DNAJC13 / Fold change vs veh, DNAJC13 / RFU, GNAQ / Fold change vs veh, GNAQ / RFU, CDK5R1 / Fold change vs veh, CDK5R1 / RFU, ZRANB3 / Fold change vs veh, ZRANB3 / RFU, CUL4A / Fold change vs veh, CUL4A / RFU, CCNY / Fold change vs veh, CCNY / RFU, UFL1 / Fold change vs veh, UFL1 / RFU, COG3 / Fold change vs veh, COG3 / RFU, DIAPH2 / Fold change vs veh, DIAPH2 / RFU, SKA2 / Fold change vs veh, SKA2 / RFU, AFF3 / Fold change vs veh, AFF3 / RFU, LMF1 / Fold change vs veh, LMF1 / RFU, IPO11 / Fold change vs veh, IPO11 / RFU, DFFB / Fold change vs veh, DFFB / RFU, FOXP1 / Fold change vs veh, FOXP1 / RFU, CARD8 / Fold change vs veh, CARD8 / RFU, STRN3 / Fold change vs veh, STRN3 / RFU, ADK / Fold change vs veh, ADK / RFU, RASSF2 / Fold change vs veh, RASSF2 / RFU, WIPF1 / Fold change vs veh, WIPF1 / RFU, LARP1B / Fold change vs veh, LARP1B / RFU, RASA1 / Fold change vs veh, RASA1 / RFU, RB1 / Fold change vs veh, RB1 / RFU, PPFIA1 / Fold change vs veh, PPFIA1 / RFU, MAT2A / Fold change vs veh, MAT2A / RFU, CCT5 / Fold change vs veh, CCT5 / RFU, WDR92 / Fold change vs veh, WDR92 / RFU, CUX1 / Fold change vs veh, CUX1 / RFU, TTC7A / Fold change vs veh, TTC7A / RFU, TMEM135 / Fold change vs veh, TMEM135 / RFU, DEPTOR / Fold change vs veh, DEPTOR / RFU, CPM / Fold change vs veh, CPM / RFU, DNAJB6 / Fold change vs veh, DNAJB6 / RFU, CACNA2D3 / Fold change vs veh, CACNA2D3 / RFU, DTX4 / Fold change vs veh, DTX4 / RFU, TFCP2 / Fold change vs veh, TFCP2 / RFU, GMCL1 /// GMCL1P1 / Fold change vs veh, GMCL1 /// GMCL1P1 / RFU, AEBP2 / Fold change vs veh, AEBP2 / RFU, SNHG1 /// SNORD22 /// SNORD25 /// SNORD26 /// SNORD27 /// SNORD28 /// SNORD29 /// SNORD31 / Fold change vs veh, SNHG1 /// SNORD22 /// SNORD25 /// SNORD26 /// SNORD27 /// SNORD28 /// SNORD29 /// SNORD31 / Fold change (Aza/veh), C12orf56 (ProbeSet 11735607_a_at) / Fold change (ACY-1035/veh), C12orf56 (ProbeSet 11735607_a_at) / Fold change (Aza/veh), FGFR1OP (ProbeSet 11751329_s_at) / Fold change (ACY-1035/veh), FGFR1OP (ProbeSet 11751329_s_at) / Fold change (Aza/veh), VPS36 (ProbeSet 11739960_a_at) / Fold change (ACY-1035/veh), VPS36 (ProbeSet 11739960_a_at) / RFU SYPL1 (11715823_x_at) / Fold change /veh SYPL1 (11715823_x_at) / RFU IGFBP7 (11715501_s_at) / Fold change /veh IGFBP7 (11715501_s_at) / RFU REEP3 (11722064_at) / Fold change /veh REEP3 (11722064_at) / RFU IGLL1 (11728026_x_at) / Fold change /veh IGLL1 (11728026_x_at): dose or concentration left out as unconfirmed. The conditions noted are these: ProbeSet 11740528_a_at; LIST D. It counts as cell-based, human.

Structures are written as SMILES.

`Nc1ccc(-c2cccs2)cc1NC(=O)c1ccc2c(c1)cc(C1CC1)n2CCN1CCOCC1` [ACY-1035]: the “RFU, AFF3” value stood at 703.28 RFU.
